Columns and labels:
[1] = biological target: GFP-Cbx1 (chromobox homolog 1 fused with an N-terminal GFP-tag) (mouse) (UniProt P83917); test: GFP-multiTrap plate binding assay, fluorescence read-out; GFP fusion held on the GFP-multiTrap 96-well plate, blocked with 3% milk; 0.15 µM TAMRA-labeled histone-tail peptide, 20 min at RT, IP buffer (20 mM Tris-HCl pH 7.5, 150 mM NaCl, 0.5 mM EDTA) with 0.05% Tween; ratio of bound peptide over GFP fusion by plate reader
GFP-Cbx1 [2] = test: Competition assay between TAMRA-labeled H3K9me3 and biotinylated histone-tail peptides; type: binding, mouse; conditions: biotinylated peptide added in parallel; Figure 2C; three independent experiments; **P<0.003
Procedure: In the next assay we determined whether this approach is also feasible to quantify binding affinities between GFP-proteins and peptides or DNA. First, we analyzed histone-tail peptide binding specificities of the chromobox homolog 1, Cbx1, fused with a N-terminal GFP-tag using the GFP-multiTrap. GFP-Cbx1 was purified from mammalian cell lysate, as described above, and the bound protein was incubated with TAMRA-labeled histone-tail peptides. A set of 20 different histone-tail peptides (Table 1) was used in technical triplicates in parallel and GFP served as negative control (GFP data is not shown). After removal of unbound substrate the amounts of protein and histone-tail peptide were determined by fluorescence intensity measurements using a micro plate reader. Binding ratios were calculated by dividing the concentration of bound histone-tail peptide by the concentration of GFP fusion (Figure 2A). […] In addition to fluorescent quantification via a micro plate reader, we scanned the TAMRA signals using a Typhoon scanner (Figure 2B). […] In contrast, we could not detect a significant difference in binding ratios between di- and trimethylated H3K9 histone tail peptides using a micro plate reader (Figure 2A). […] While the binding ratios for the HP1β chromo domain were determined using bacterially expressed protein we used a fluorescent fusion protein derived from mammalian cells. […]

GFP-Cbx1 [3] = test: In vitro histone-tail peptide binding assay on GFP-multiTrap; parameters: species or system mouse; conditions: for Binding of GFP-Cbx1 to histone-tail peptide (binding ratios, Figure 2A): 0.15 µM TAMRA-labeled peptide per well, RT 20 min
Procedure: In the next assay we determined whether this approach is also feasible to quantify binding affinities between GFP-proteins and peptides or DNA. First, we analyzed histone-tail peptide binding specificities of the chromobox homolog 1, Cbx1, fused with a N-terminal GFP-tag using the GFP-multiTrap. GFP-Cbx1 was purified from mammalian cell lysate, as described above, and the bound protein was incubated with TAMRA-labeled histone-tail peptides. A set of 20 different histone-tail peptides (Table 1) was used in technical triplicates in parallel and GFP served as negative control (GFP data is not shown). After removal of unbound substrate the amounts of protein and histone-tail peptide were determined by fluorescence intensity measurements using a micro plate reader. Binding ratios were calculated by dividing the concentration of bound histone-tail peptide by the concentration of GFP fusion (Figure 2A). […] In addition to fluorescent quantification via a micro plate reader, we scanned the TAMRA signals using a Typhoon scanner (Figure 2B). […] These differences could result from different sensitivities of both methods. […] We incubated GFP-Cbx1 with TAMRA-labeled H3K9me3 in parallel with either biotinylated H3K9me3 or H3K9ac histone-tail peptides. […] In contrast, we could not detect a significant difference in binding ratios between di- and trimethylated H3K9 histone tail peptides using a micro plate reader (Figure 2A). One explanation could be the use of different expression systems. While the binding ratios for the HP1β chromo domain were determined using bacterially expressed protein we used a fluorescent fusion protein derived from mammalian cells. […] To determine the binding affinity of GFP-Cbx1 to H3K9me3, we varied the input amount of histone-tail peptide. We plotted the amount of bound histone-tail peptide as a function of total peptide and fitted the values using GraphPad Prism and nonlinear regression (Figure 2D). The amount of bound H3K9me3 histone-tail peptide increases linearly and saturates at approximately 500 nM of input peptide. […] Here, the input amount of protein/substrate was measured in solution, whereas the bound fraction represents one value on the 96-well surface.
For purification, 100 µL or 50 µL precleared cellular lysate for full-area plates or half-area plates, respectively, was added per well and incubated for 2 hours at 4°C on a GFP-multiTrap plate by continuous shaking. After removing the supernatant, wells were washed twice with 100 µL of washing buffer (WB; 20 mM Tris-HCl pH 7.5, 100–300 mM NaCl, 0.5 mM EDTA) and 100 µL of IP or dilution buffer was added for measurement. The amounts of bound protein were determined by fluorescence intensity measurements with a Tecan Infinite M1000 plate reader (Tecan, Austria). Wavelengths for excitation and emission of GFP are 490±10 nm and 511±10 nm, for RFP are 586±5 nm and 608±10 nm and for YFP 525±5 nm and 538±5 nm, respectively. The concentration of proteins was calculated using calibration curves that were determined by measuring the fluorescence signal of known concentrations of purified GFP, RFP and YFP. […] Bound proteins were eluted with 300 mM Glycin pH 2.5 and subsequently buffered with 1 M Tris pH 7.5. Elution fractions were added to SDS-containing sample buffer (referred to as Bound (B)). Bound proteins were visualized by immunoblotting using the anti-GFP mouse monoclonal antibody (Roche, Germany).
The in vitro histone-tail binding assay was performed as described previously. After one-step purification of GFP fusion proteins the wells were blocked with 100 µL 3% milk solved in TBS-T (0.075% Tween) for 30 minutes at 4°C on a plate vortex, shaking gently. After blocking, the wells were equilibrated in 50 µL IP buffer supplemented with 0.05% Tween. […]

HP1β chromo domain = conditions: bacterially expressed protein; ref [11], [12]; read-out: binding affinities; cited from earlier work
Cbx1 = Cbx1 (UniProt P83917); test: TAMRA-peptide binding to GFP-multiTrap-immobilised GFP-Cbx1; conditions: reference: H3K9me3 peptide; sites S10
[4] = biological target: GFP-PBD (green fluorescent PCNA-binding domain of Dnmt1); test: GFP-multiTrap plate binding assay, fluorescence read-out; GFP fusion held on the GFP-multiTrap plate, blocked with 3% milk, incubated with HEK293T cellular extract holding the RFP fusion for 30 min at RT; molar ratio of bound RFP fusion over GFP fusion by plate reader
[5] = plate reader, three independent experiments

UniProt P83917, sequence (P83917 whole entry, the tested form may be a part): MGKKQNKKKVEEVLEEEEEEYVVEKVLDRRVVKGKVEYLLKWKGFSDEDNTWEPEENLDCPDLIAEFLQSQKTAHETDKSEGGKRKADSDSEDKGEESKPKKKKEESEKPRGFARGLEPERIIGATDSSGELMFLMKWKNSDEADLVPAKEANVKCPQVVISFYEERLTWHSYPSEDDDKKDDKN

H3K9me3 histone-tail peptide, TAMRA-labeled
relative binding ratio (substrate/GFP fusion) [1]: 0.572

biotinylated H3K9me3: biotinylated H3K9me3 histone-tail peptide used as competitor
Effect of competitor on binding of Cbx1 to TAMRA-labeled H3K9me3 (GFP-Cbx1 [2]): significantly decreased

ARTKQTAR X2 S TGGKAPRKQLK [H3K9me2, TAMRA-labeled histone H3 tail peptide, dimethylated Lysine 9]
Binding of GFP-Cbx1 to histone-tail peptide (binding ratios, Figure 2A) (GFP-Cbx1 [3]; [5]): preferentially binds
TAMRA signals of bound peptide by Typhoon scanner (Figure 2B) (GFP-Cbx1 [3]; fluorescence scanner): detected TAMRA signals
Kd (HP1β chromo domain): 7 µM

histone H3 1-20 (from UniProt P68431) H3K9me3S10p peptide
binding against the reference (Cbx1): lost

mRFP
relative binding ratio (substrate/GFP fusion) [4]: 0.005

biotinylated H3K9ac: biotinylated H3K9ac histone-tail peptide used as competitor
Effect of competitor on binding of Cbx1 to TAMRA-labeled H3K9me3 (GFP-Cbx1 [2]): did not alter

H3 (1–20) histone-tail peptide, TAMRA-labeled
relative binding ratio (substrate/GFP fusion) [1]: 0.0772

ART K QTARKSTGGKAPRKQLK [H3 (1–20), TAMRA-labeled unmodified histone H3 tail peptide, residues 1–20]
Binding of Cbx1 with varied input amount of peptide (Figure 2D) (GFP-Cbx1 [3]; varied input of TAMRA-labeled peptide, plate reader, two independent experiments for H3): could not detect any binding

ARTKQTAR X3 Z2 TGGKAPRKQLK [H3K9me3S10p, TAMRA-labeled H3 tail peptide, trimethylated Lysine 9 and phosphorylated Serine 10]
Binding of GFP-Cbx1 to histone-tail peptide (binding ratios, Figure 2A) (GFP-Cbx1 [3]; [5]): prevents binding

ARTKQTAR X3 S TGGKAPRKQLK [H3K9me3, TAMRA-labeled histone H3 tail peptide, trimethylated Lysine 9]
Binding of GFP-Cbx1 to histone-tail peptide (binding ratios, Figure 2A) (GFP-Cbx1 [3]; [5]): preferentially binds
TAMRA signals of bound peptide by Typhoon scanner (Figure 2B) (GFP-Cbx1 [3]; fluorescence scanner): detected TAMRA signals
Preference in binding by fluorescence scanner (GFP-Cbx1 [3]; fluorescence scanner, no difference seen with micro plate reader): preference for tri- over dimethylated H3K9
Input peptide at which bound histone-tail peptide saturates (GFP-Cbx1 [3]; varied input of TAMRA-labeled peptide, Figure 2D, nonlinear regression, three independent experiments): approximately 500 nM
Kd (HP1β chromo domain): 2.5 µM

Source: publication PMC3350483, “Versatile Toolbox for High Throughput Biochemical and Functional Studies with Fluorescent Fusion Proteins” (PLoS ONE, 2012)
